Data published in patent US20150005307A1, “Drug Delivery Technology” (LondonPharma Ltd., priority 2011, published 2015).
Where a name gives a salt, the structure may show the parent alone.

Assay: Solubility of PDE5 inhibitors in formulation carriers and co-solvents
Settings: for solubility in water: result in words
From the text: In the absence of ethanol an alternative preservative could be used, though methyl parabens and potassium sorbate precipitated out of solution.
Suitable sweeteners were sucralose (0.05%) and suitable flavourings were strawberry flavour 501094 (0.5%) and orange juice flavour 506304 (0.5%).
Cremophor EL (macrogol glycerol ricinoleate Ph Eur) was identified as a component that was able to maintain menthol, peppermint oil, aniseed and lemon oil in solution. These flavours were firstly mixed at 10% w/w with Cremophor EL, and the resultant combination then mixed with water (10% w/w in purified water). […] Note that vanillin also degraded in Cremophor EL, rendering it unusable. […] The action of Cremophor EL here is that of a water-miscible oil-based solvent. Sildenafil and vardenafil remained in solution at a concentration of at least 60 mg/ml and 30 mg/ml, respectively, in the presence of 10% Cremophor EL.

[1] = Miglyol 810 (medium-chain triglycerides Ph Eur), with or without ethanol

## CCCc1nn(C)c2c(=O)[nH]c(-c3cc(S(=O)(=O)N4CCN(C)CC4)ccc3OCC)nc12 [sildenafil (base), sildenafil]
[1]
  solubility in Miglyol 810: Neither sildenafil (base) nor sildenafil citrate were found to be soluble
water
  solubility in water: Neither sildenafil (base) nor sildenafil citrate were found to be soluble

## CN1CC(=O)N2[C@H](c3ccc4c(c3)OCO4)c3[nH]c4ccccc4c3C[C@@H]2C1=O [Tadalafil (base), Tadalafil]
[1]
  solubility in Miglyol 810: insoluble
PEG, even using ethanol as a co-solvent
  solubility in other potential solvents e.g. PEG: insoluble
water
  solubility in water: insoluble

## CCCc1nc(C)c2c(=O)[nH]c(-c3cc(S(=O)(=O)N4CCN(CC)CC4)ccc3OCC)nn12 [Vardenafil (hydrochloride trihydrate), vardenafil hydrochloride trihydrate]
  solubility in Miglyol 810: insoluble
water
  solubility: ≥ 50 mg/mL
